From US20070244153A1 (priority 2004, published 2007)

Columns and labels:
[1] = test system: Phytophthora infestans; type: in vivo; settings: 250 ppm spray, tomato seedling 4-leaf stage, 4th day after inoculation; untreated not less than 60%
[2] = test system: Pseudoperonospora cubensis; experiment: Controlling effect against cucumber downy mildew (spray on cucumber seedlings, 250 ppm); type: in vivo; settings: 250 ppm spray, cucumber seedling 1-leaf stage, 7th day after inoculation; untreated 60 to 80%
Description: A solution of the compound in acetone was diluted with water to 250 ppm, and the solution was sprayed to the cucumber seedling (breed: Sagamihangbak, two per plastic pot having a diameter of 7.5 cm) at 1-leaf stage in an amount of 10 mL of the compound/pot. After air-drying, the pot was transferred to a moist chamber provided in the greenhouse, and inoculated by spray with a zoosporic suspension of Pseudoperonospora cubensis. On the 7th day after inoculation the infected area rate for the leaves was examined. Evaluation was carried out by the following criteria.
The infected area rate for untreated groups in the examination was 60 to 80%.

[3] = test system: Plasmopara viticola; experiment: Controlling effect against grape downy mildew (leaf disk immersion, 250 ppm); type: in vivo; settings: grape leaf disk immersed 3 hours, 10th day after inoculation, untreated 60 to 70%
Description: The developed leaf of grape seedling (breed: Cabernet Sauvignon) grown in 1/2000 a pot was cut and prepared a leaf disk having a diameter of 32 mm. A solution of the compound in acetone was diluted with water to 250 ppm, and the leaf disk was immersed for 3 hours. The disk was taken from the agent solution, subjected to air-drying, and then inoculated by spray with a zoosporangia suspension of Plasmopara viticola. The test disk was incubated at 18° C. for 12 hours in a light-dark light cycle. On the 10th day after inoculation the infected area rate for the leaf disk was examined. Evaluation was carried out by the following criteria. The infected area rate for the untreated groups in the examination was 60 to 70%.

| Compound | Effect: controlling effect against tomato late blight (infected area rate) [1] | melting point [°C] | Effect: controlling effect against cucumber downy mildew (infected area rate) [2] | Effect: controlling effect against grape downy mildew (infected area rate) [3] |
| --- | --- | --- | --- | --- |
| CC(C)OC(=O)N[C@H](C(=O)N[C@H](CNC(=O)c1cccc2onnc12)C(C)C)C(C)C [Compound No. 929, N-[1-(S)-[(benzoxadiazol-4-yl)carbonylaminomethyl]-2-methylpropyl]3-methyl-2-(S)-[(1-methylethyl)oxycarbonylamino]butyramide] | A (Infected area rate of less than 5%) | 242.9 | A (the infected area rate of less than 5%) | B (the infected area rate of 5% to less than 50%) |
| CC(C)COC(=O)N[C@H](C(=O)N[C@H](CNC(=O)c1cccs1)C(C)C)C(C)C [Compound No. 1020, N-[1-(S)-[[(thiophene-2-carbonyl)amino]methyl]-2-methylpropyl]3-methyl-2-(S)-[(2-methylpropyloxycarbonyl)amino]butyramide] | B (Infected area rate of 5% to less than 50%) | 204.9 | B (the infected area rate of 5% to less than 50%) |  |
| CC(C)[C@@H](CNC(=O)c1cc2ccccc2o1)NC(=O)C(C)(C)NC(=O)OC(C)(C)C |  | 140.5 |  |  |
| C=COC(=O)N[C@H](C(=O)N[C@H](CNC(=O)c1cc2ccccc2o1)C(C)C)C(C)C [Compound No. 782, N-[1-(S)-[[(benzofuran-2-carbonyl)amino]methyl]-2-methylpropyl]3-methyl-2-(S)-[(vinyloxycarbonyl)amino]butyramide] | A (Infected area rate of less than 5%) | 192.7 | A (the infected area rate of less than 5%) | A (the infected area rate of less than 5%) |
| CC(C)OC(=O)N[C@H](C(=O)N[C@H](CNC(=O)c1ccccc1Cl)C(C)C)C(C)C [Compound No. 196, N-[1-(S)-[[(2-chlorobenzoyl)amino]methyl]-2-methylpropyl]3-methyl-2-(S)-[(1-methylethyloxycarbonyl)amino]butyramide] | A (Infected area rate of less than 5%) | 196.8 | B (the infected area rate of 5% to less than 50%) |  |
| CC(C)OC(=O)N[C@H](C(=O)N[C@H](CNC(=O)c1cc2ccccc2o1)C(C)C)C(C)C [Compound No. 775, N-[2-methyl-1-(S)-[[(benzofuran-2-carbonyl)amino]methyl]propyl][3-methyl-2-(S)-[N-(1-methylethyloxycarbonyl)amino]]butyramide] | A (Infected area rate of less than 5%) |  | A (the infected area rate of less than 5%) | A (the infected area rate of less than 5%) |
| C#CC[C@H](NC(=O)OCC(C)C)C(=O)N[C@H](CNC(=O)c1ccc(C)cc1)C(C)C [Compound No. 76, N-[2-methyl-1-(S)-[[(4-methylbenzoyl)amino]methyl]propyl]2-(S)-[(2-methylpropyloxycarbonyl)amino]-4-pentynamide] | A (Infected area rate of less than 5%) | 215.1 |  |  |
| CC(C)COC(=O)N[C@H](C(=O)N[C@H](CNC(=O)c1ccc(Cl)cc1)C(C)C)C(C)C [Compound No. 205, N-[1-(S)-[[(4-chlorobenzoyl)amino]methyl]-2-methylpropyl]3-methyl-2-(S)-[(2-methylpropyloxycarbonyl)amino]butyramide] | A (Infected area rate of less than 5%) |  | A (the infected area rate of less than 5%) | B (the infected area rate of 5% to less than 50%) |
